Key:
JAK2 = biological target: T1, JAK2 (Homo sapiens, UniProt O60674); assay: Kinobeads assay, JAK2; type: binding; conditions: mixed Molt4/Ramos lysate, read-out: Inhibition values (IC50) JAK2
T1 construct: endogenous in cells; host or cells: mixed Molt4/Ramos lysate (1:2)
In short: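 IC50 values come from dose-response curves of JAK2/JAK3 captured on immobilized aminopyrido-pyrimidine beads, quantified by antibody dot blot with infrared read-out. Compounds (1:3 series, 9 steps, from 5 mM DMSO stock) competed for 3 h in the cold with mixed Molt4/Ramos lysate (1:2, 10 mg/mL protein).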

Aurora A = biological target: T2, Aurora A (Homo sapiens, UniProt O14965); assay: Kinobeads assay, Aurora A; type: binding; conditions: for IC50: lysate of pervanadate-treated Jurkat cells, read-out: Inhibition values (IC50) Aur A
T2 construct: cell lysates from Jurkat cells (ATCC TIB-152) used; endogenous in cells; host or cells: Jurkat cells (ATCC TIB-152), treated with pervanadate
T2 sequence (O14965 1-403): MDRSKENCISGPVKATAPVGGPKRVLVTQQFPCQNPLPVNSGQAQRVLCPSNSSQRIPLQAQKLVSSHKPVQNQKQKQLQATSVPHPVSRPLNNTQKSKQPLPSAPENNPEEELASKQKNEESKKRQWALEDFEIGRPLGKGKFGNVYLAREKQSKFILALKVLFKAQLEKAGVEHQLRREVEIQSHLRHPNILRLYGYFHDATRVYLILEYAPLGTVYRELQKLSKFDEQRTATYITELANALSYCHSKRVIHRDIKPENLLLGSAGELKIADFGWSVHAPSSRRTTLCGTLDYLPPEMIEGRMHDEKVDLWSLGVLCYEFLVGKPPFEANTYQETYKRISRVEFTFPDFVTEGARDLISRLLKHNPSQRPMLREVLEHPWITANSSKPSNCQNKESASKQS

T1 sequence (O60674 whole entry): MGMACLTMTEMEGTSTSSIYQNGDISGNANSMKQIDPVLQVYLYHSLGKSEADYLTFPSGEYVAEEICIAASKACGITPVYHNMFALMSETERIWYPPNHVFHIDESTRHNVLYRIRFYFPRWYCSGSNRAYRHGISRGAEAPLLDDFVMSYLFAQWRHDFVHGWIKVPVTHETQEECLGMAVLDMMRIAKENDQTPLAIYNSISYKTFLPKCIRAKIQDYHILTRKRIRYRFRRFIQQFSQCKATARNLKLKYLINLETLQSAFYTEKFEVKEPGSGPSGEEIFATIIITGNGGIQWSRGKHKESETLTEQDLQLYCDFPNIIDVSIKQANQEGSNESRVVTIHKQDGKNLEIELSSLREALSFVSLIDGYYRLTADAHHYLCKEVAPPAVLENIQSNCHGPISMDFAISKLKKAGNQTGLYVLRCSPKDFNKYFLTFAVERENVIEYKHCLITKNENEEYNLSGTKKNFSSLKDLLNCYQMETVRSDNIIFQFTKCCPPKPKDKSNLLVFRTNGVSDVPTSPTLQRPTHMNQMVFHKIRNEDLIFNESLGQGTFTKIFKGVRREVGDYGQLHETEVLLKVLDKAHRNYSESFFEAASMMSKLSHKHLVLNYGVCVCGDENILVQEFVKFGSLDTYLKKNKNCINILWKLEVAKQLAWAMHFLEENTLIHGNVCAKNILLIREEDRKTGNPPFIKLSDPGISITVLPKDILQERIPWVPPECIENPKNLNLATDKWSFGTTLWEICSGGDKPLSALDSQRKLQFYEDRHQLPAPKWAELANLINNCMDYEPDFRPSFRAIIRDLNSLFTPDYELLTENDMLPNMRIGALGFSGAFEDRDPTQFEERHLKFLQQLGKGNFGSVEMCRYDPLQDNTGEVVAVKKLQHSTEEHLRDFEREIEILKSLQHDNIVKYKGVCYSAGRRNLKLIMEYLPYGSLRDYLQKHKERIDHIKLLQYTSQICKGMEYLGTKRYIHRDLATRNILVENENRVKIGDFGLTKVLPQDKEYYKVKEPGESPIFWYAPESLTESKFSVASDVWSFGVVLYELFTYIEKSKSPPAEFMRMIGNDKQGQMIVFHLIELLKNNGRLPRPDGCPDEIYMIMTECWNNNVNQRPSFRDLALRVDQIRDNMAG

| SMILES | IC50 (JAK2) [µM] | JAK3/AurA Fold Selectivity (Aurora A) | IC50 (Aurora A) [µM] |
| --- | --- | --- | --- |
| Cn1cc(Nc2ncc3cnn(Cc4cccc(N5CCC(F)(F)CC5)c4)c3n2)cn1 [Example 19, 1-(3-(4,4-Difluoropiperidin-1-yl)benzyl)-N-(1-methyl-1H-pyrazol-4-yl)-1H-pyrazolo[3,4-d]pyrimidin-6-amine] | ≥ 10 | 10-50 Fold | 1 to 10 |
| CNCC1(Cn2cc(Nc3ncc4cnn(Cc5cccc(N6CCOCC6)c5)c4n3)cn2)COC1 [Example 41, N-(1-((3-((Methylamino)methyl)oxetan-3-yl)methyl)-1H-pyrazol-4-yl)-1-(3-morpholinobenzyl)-1H-pyrazolo[3,4-d]pyrimidin-6-amine] | ≥ 10 | 10-50 Fold | 1 to 10 |
| Cn1cc(Nc2ncc3cnn(Cc4cccc(CN5CCOCC5)c4)c3n2)cn1 [Example 7, N-(1-Methyl-1H-pyrazol-4-yl)-1-(3-(morpholinomethyl)benzyl)-1H-pyrazolo[3,4-d]pyrimidin-6-amine] | ≥ 10 | 10-50 Fold | 0.1 to 1 |
| Cn1cc(Nc2ncc3cnn(Cc4cc(F)cc(N5CC6(COC6)C5)c4)c3n2)cn1 [Example 90, 1-(3-fluoro-5-(2-oxa-6-azaspiro[3.3]heptan-6-yl)benzyl)-N-(1-methyl-1H-pyrazol-4-yl)-1H-pyrazolo[3,4-d]pyrimidin-6-amine] | 1 to 10 | 10-50 Fold | ≥ 10 |
| Cn1cc(Nc2ncc3cnn(Cc4cc(N5CCOCC5)cc(F)c4F)c3n2)cn1 [Example 37, 1-(2,3-Difluoro-5-morpholinobenzyl)-N-(1-methyl-1H-pyrazol-4-yl)-1H-pyrazolo[3,4-d]pyrimidin-6-amine] | ≥ 10 | 10-50 Fold | 1 to 10 |
| CN(C)CC(O)Cn1cc(Nc2ncc3cnn(Cc4cccc(N5CCOCC5)c4)c3n2)cn1 (centres unmarked) [Example 33, 1-(Dimethylamino)-3-(4-((1-(3-morpholinobenzyl)-1H-pyrazolo[3,4-d]pyrimidin-6-yl)amino)-1H-pyrazol-1-yl)propan-2-ol] | ≥ 10 | >50 Fold | 1 to 10 |
| OCCCn1cc(Nc2ncc3cnn(Cc4cccc(N5CCOCC5)c4)c3n2)cn1 [Example 18, 3-(4-((1-(3-Morpholinobenzyl)-1H-pyrazolo[3,4-d]pyrimidin-6-yl)amino)-1H-pyrazol-1-yl)propan-1-ol] | ≥ 10 | 10-50 Fold | 0.1 to 1 |
| Cn1cc(Nc2ncc3cnn(Cc4cccc(N5CCOCC5)n4)c3n2)cn1 [Example 3, N-(1-Methyl-1H-pyrazol-4-yl)-1-((6-morpholinopyridin-2-yl)methyl)-1H-pyrazolo[3,4-d]pyrimidin-6-amine] | ≥ 10 | 10-50 Fold | 0.1 to 1 |
| CC(CN(C)C)Cn1cc(Nc2ncc3cnn(Cc4cccc(N5CCOCC5)c4)c3n2)cn1 (centres unmarked) [Example 32, N-(1-(3-(Dimethylamino)-2-methylpropyl)-1H-pyrazol-4-yl)-1-(3-morpholinobenzyl)-1H-pyrazolo[3,4-d]pyrimidin-6-amine] | ≥ 10 | 10-50 Fold | 1 to 10 |
| O=C1CCCN1CCCn1cc(Nc2ncc3cnn(Cc4cccc(N5CCOCC5)c4)c3n2)cn1 [Example 30, 1-(3-(4-((1-(3-Morpholinobenzyl)-1H-pyrazolo[3,4-d]pyrimidin-6-yl)amino)-1H-pyrazol-1-yl)propyl)pyrrolidin-2-one] | ≥ 10 | 10-50 Fold | 0.1 to 1 |
| Cn1cc(Nc2ncc3cnn(Cc4cc(N5CCOCC5)ccc4F)c3n2)cn1 [Example 15, 1-(2-Fluoro-5-morpholinobenzyl)-N-(1-methyl-1H-pyrazol-4-yl)-1H-pyrazolo[3,4-d]pyrimidin-6-amine] | ≥ 10 | 10-50 Fold | 1 to 10 |
| Cn1cc(Nc2ncc3cnn(Cc4cccc(N5CCCCC5)c4)c3n2)cn1 [Example 8, N-(1-Methyl-1H-pyrazol-4-yl)-1-(3-(piperidin-1-yl)benzyl)-1H-pyrazolo[3,4-d]pyrimidin-6-amine] | ≥ 10 | 10-50 Fold | 1 to 10 |

Now from value to compound:

| IC50 (JAK2) [µM] | JAK3/AurA Fold Selectivity (Aurora A) | IC50 (Aurora A) [µM] | SMILES |
| --- | --- | --- | --- |
| ≥ 10 | >50 Fold | 1 to 10 | Cn1cc(Nc2ncc3cnn(Cc4cc(-c5cnn(C)c5)cc(F)c4F)c3n2)cn1 [Example 126, 1-(2,3-difluoro-5-(1-methyl-1H-pyrazol-4-yl)benzyl)-N-(1-methyl-1H-pyrazol-4-yl)-1H-pyrazolo[3,4-d]pyrimidin-6-amine] |
| 1 to 10 | 10-50 Fold | 0.1 to 1 | Cn1cc(-c2cc(F)c(F)c(Cn3ncc4cnc(Nc5cnn(CCO)c5)nc43)c2)cn1 [Example 127, 2-(4-((1-(2,3-difluoro-5-(1-methyl-1H-pyrazol-4-yl)benzyl)-1H-pyrazolo[3,4-d]pyrimidin-6-yl)amino)-1H-pyrazol-1-yl)ethanol] |
| 1 to 10 | 3-10 Fold | < 0.1 | CNCCCn1cc(Nc2ncc3cnn(Cc4cc(F)cc(N5CCOCC5=O)c4)c3n2)cn1 [Example 99, 4-(3-fluoro-5-((6-((1-(3-(methylamino)propyl)-1H-pyrazol-4-yl)amino)-1H-pyrazolo[3,4-d]pyrimidin-1-yl)methyl)phenyl)morpholin-3-one] |
| ≥ 10 | 10-50 Fold | 1 to 10 | CCCn1cc(-c2cccc(Cn3ncc4cnc(Nc5cnn(C)c5)nc43)c2)cn1 [Example 119, N-(1-methyl-1H-pyrazol-4-yl)-1-(3-(1-propyl-1H-pyrazol-4-yl)benzyl)-1H-pyrazolo[3,4-d]pyrimidin-6-amine] |
| ≥ 10 | 10-50 Fold | 0.1 to 1 | C[C@H]1COCCN1c1cccc(Cn2ncc3cnc(Nc4cnn(C)c4)nc32)c1 [Example 112, (S)-N-(1-methyl-1H-pyrazol-4-yl)-1-(3-(3-methylmorpholino)benzyl)-1H-pyrazolo[3,4-d]pyrimidin-6-amine] |
| 1 to 10 | 10-50 Fold | 0.1 to 1 | Cn1cc(-c2cccc(Cn3ncc4cnc(Nc5cnn(CCO)c5)nc43)c2F)cn1 [Example 124, 2-(4-((1-(2-fluoro-3-(1-methyl-1H-pyrazol-4-yl)benzyl)-1H-pyrazolo[3,4-d]pyrimidin-6-yl)amino)-1H-pyrazol-1-yl)ethanol] |
| 0.1 to 1 | 10-50 Fold | 1 to 10 | Cn1cc(Nc2ncc3cnn(Cc4cc(F)cc(-c5cnn(C)c5)c4)c3n2)cn1 [Example 125, 1-(3-fluoro-5-(1-methyl-1H-pyrazol-4-yl)benzyl)-N-(1-methyl-1H-pyrazol-4-yl)-1H-pyrazolo[3,4-d]pyrimidin-6-amine] |
| 1 to 10 |  | ≥ 10 | Cn1cc(Nc2ncc3cnn(Cc4cccc(N5CC6(COC6)C5)c4F)c3n2)cn1 [Example 91, 1-(2-fluoro-3-(2-oxa-6-azaspiro[3.3]heptan-6-yl)benzyl)-N-(1-methyl-1H-pyrazol-4-yl)-1H-pyrazolo[3,4-d]pyrimidin-6-amine] |
| 1 to 10 | 10-50 Fold | 1 to 10 | Cn1cc(Nc2ncc3cnn(Cc4cccc(-c5cnn(C)c5)c4F)c3n2)cn1 [Example 123, 1-(2-fluoro-3-(1-methyl-1H-pyrazol-4-yl)benzyl)-N-(1-methyl-1H-pyrazol-4-yl)-1H-pyrazolo[3,4-d]pyrimidin-6-amine] |
| 1 to 10 | >50 Fold | 1 to 10 | Fc1cc(N2CCOCC2)c(F)c(Cn2ncc3cnc(Nc4cnn(CC5CCNC5)c4)nc32)c1F (centres unmarked) [Example 94, N-(1-(pyrrolidin-3-ylmethyl)-1H-pyrazol-4-yl)-1-(2,3,6-trifluoro-5-morpholinobenzyl)-1H-pyrazolo[3,4-d]pyrimidin-6-amine] |
| ≥ 10 | 3-10 Fold | 0.1 to 1 | Cn1cc(Nc2ncc3cnn(Cc4cccc(N5CCC(=O)CC5)c4)c3n2)cn1 [Example 108, 1-(3-((6-((1-methyl-1H-pyrazol-4-yl)amino)-1H-pyrazolo[3,4-d]pyrimidin-1-yl)methyl)phenyl)piperidin-4-one] |
| 1 to 10 | 10-50 Fold | 0.1 to 1 | Cn1cc(Nc2ncc3cnn(Cc4cccc(-c5cnn(CCO)c5)c4)c3n2)cn1 [Example 121, 2-(4-(3-((6-((1-methyl-1H-pyrazol-4-yl)amino)-1H-pyrazolo[3,4-d]pyrimidin-1-yl)methyl)phenyl)-1H-pyrazol-1-yl)ethanol] |
| ≥ 10 | 10-50 Fold | 0.1 to 1 | Cn1cc(Nc2ncc3cnn(Cc4cccc(N5CCC6(COC6)C5)c4)c3n2)cn1 [Example 104, 1-(3-(2-oxa-6-azaspiro[3.4]octan-6-yl)benzyl)-N-(1-methyl-1H-pyrazol-4-yl)-1H-pyrazolo[3,4-d]pyrimidin-6-amine] |
